Reference: patent publication US20230190924A1, “ANTIGEN OF ALLERGY AND EPITOPE THEREOF” (HOYU CO., LTD., priority 2017, published 2023)

Each substance was assayed on IgE antibodies from patients (assay: Epitope mapping (2) overlapping (10-amino-acid peptides) and (3) alanine scanning on peptide arrays). Conditions: overlapping peptides with flanking sequence.
Type: binding, human
Summary of the method: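 Overlapping 10-mer peptides shifted by one residue, and alanine-substituted peptides, spotted on cellulose and probed with patient and non-egg-allergic sera; IgE binding read by anti-human IgE-HRP chemiluminescence. Signal expressed relative to parent sequence and graded in bands from <20% (no binding) to ≥90% (retained binding).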

Row | Substance | binding to IgE antibodies from patients, sequence comprising a region carboxy-terminally adjacent to the epitope | binding to IgE antibodies from patients, sequence comprising a region amino-terminally adjacent to the epitope
1 | SEQ ID NO: 535: sequence comprising a region carboxy-terminally adjacent to epitope 27 (YDAEKKREY; epitope) | binding to IgE antibodies from patients | 
2 | SEQ ID NO: 550: sequence comprising a region amino-terminally adjacent to epitope 30 (EDTCTGACK; epitope) |  | binding to IgE antibodies from patients
3 | SEQ ID NO: 553: sequence comprising a region amino-terminally adjacent to epitope 33 (IVTLAEKYDL; epitope) |  | binding to IgE antibodies from patients
4 | SEQ ID NO: 556: sequence comprising a region carboxy-terminally adjacent to epitope 33 (NWAENLNQFI; epitope) | binding to IgE antibodies from patients | 
5 | SEQ ID NO: 583: sequence comprising a region amino-terminally adjacent to epitope 36 (DIFELGLDG; epitope) |  | binding to IgE antibodies from patients
6 | SEQ ID NO: 584: sequence comprising a region carboxy-terminally adjacent to epitope 36 (EPTLEALFG; epitope) | binding to IgE antibodies from patients | 
7 | SEQ ID NO: 595: sequence comprising a region carboxy-terminally adjacent to epitope 37 (AKVAVKLHQK; epitope) | binding to IgE antibodies from patients | 

Now from value to substance:

Row | binding to IgE antibodies from patients, sequence comprising a region carboxy-terminally adjacent to the epitope | binding to IgE antibodies from patients, sequence comprising a region amino-terminally adjacent to the epitope | Substance
8 | binding to IgE antibodies from patients |  | SEQ ID NO: 523: sequence comprising a region carboxy-terminally adjacent to epitope 23 (FVKLEKTVQL; epitope)
9 | binding to IgE antibodies from patients |  | SEQ ID NO: 542: sequence comprising a region carboxy-terminally adjacent to epitope 27 (YDAEKKRE; epitope)
10 | binding to IgE antibodies from patients |  | SEQ ID NO: 551: sequence comprising a region carboxy-terminally adjacent to epitope 30 (QRKFVKIE; epitope)
11 | binding to IgE antibodies from patients |  | SEQ ID NO: 557: sequence comprising a region carboxy-terminally adjacent to epitope 33 (AENLNQFIET; epitope)
12 |  | binding to IgE antibodies from patients | SEQ ID NO: 565: sequence comprising a region amino-terminally adjacent to epitope 34 (QDGTKVKLY; epitope)
13 |  | binding to IgE antibodies from patients | SEQ ID NO: 576: sequence comprising a region amino-terminally adjacent to epitope 35 (YQVSKRVS; epitope)
14 | binding to IgE antibodies from patients |  | SEQ ID NO: 577: sequence comprising a region carboxy-terminally adjacent to epitope 35 (LNPISAKVE; epitope)

Same assay, conditions: procedures (B) overlapping and (C) alanine scanning

Row | Substance | region within the epitope important for binding to IgE antibodies from patients
15 | SEQ ID NO: 531: region in epitope 26 (GLLIS; epitope) | important for binding
16 | SEQ ID NO: 533: region in epitope 27 (ICGKYDAE; epitope) | important for binding
17 | SEQ ID NO: 534: region in epitope 27 (GICGKYDAE; epitope) | important for binding
18 | SEQ ID NO: 539: region in epitope 27 (CGICGKYDA; epitope) | important for binding
19 | SEQ ID NO: 541: region in epitope 27 (ICGKYDAEKK; epitope) | important for binding
20 | SEQ ID NO: 555: region in epitope 33 (AEKYDLKN; epitope) | important for binding
21 | SEQ ID NO: 561: region in epitope 34 (DEPLN; epitope) | important for binding
22 | SEQ ID NO: 562: region in epitope 34 (DEPLNV; epitope) | important for binding
23 | SEQ ID NO: 569: region in epitope 34 (VKLYPEKDEP; epitope) | important for binding
24 | SEQ ID NO: 571: region in epitope 34 (KDEPLNV; epitope) | important for binding
25 | SEQ ID NO: 573: region in epitope 34 (KDEP; epitope) | important for binding
26 | SEQ ID NO: 594: region in epitope 37 (IVTPGAKVAV; epitope) | important for binding
27 | SEQ ID NO: 602: region in epitope 37 (TPGAKVAV; epitope) | important for binding

More lines, now with the values ahead:

Row | region within the epitope important for binding to IgE antibodies from patients | Substance
28 | important for binding | SEQ ID NO: 528: region in epitope 26 (GLLIS; epitope)
29 | important for binding | SEQ ID NO: 544: region in epitope 27 (YDAEKK; epitope)
30 | important for binding | SEQ ID NO: 579: region in epitope 35 (VSKRVS; epitope)
31 | important for binding | SEQ ID NO: 581: region in epitope 35 (SVPGLNP; epitope)
32 | important for binding | SEQ ID NO: 585: region in epitope 36 (GKGFE; epitope)
33 | important for binding | SEQ ID NO: 587: region in epitope 37 (SGIV; epitope)
34 | important for binding | SEQ ID NO: 589: region in epitope 37 (IVTPGAKVAV; epitope)
35 | important for binding | SEQ ID NO: 592: region in epitope 37 (SGIVTPGAK; epitope)
36 | important for binding | SEQ ID NO: 598: region in epitope 37 (SGIVTPGA; epitope)
37 | important for binding | SEQ ID NO: 600: region in epitope 37 (IVTPGAKVAV; epitope)
